The subject of series [1] is SARS-CoV2 (Covid-19).
Series [2] relates to IL-8. Nature of the series: IL-8 in co-culture supernatants (ELISA). Type of series: cell-based, human. As to conditions: tissue co-cultures from RA patients. The procedure: (§1) Cartilage and synovium co-cultures were performed from 9 patients with RA and 8 patients with OA who underwent hip or knee replacement (Table 1). Joint tissue was cultured with (a) RPMI (control), (b) 1% type I polymerized collagen, for 7 days. The supernatants and tissues of days 1 and 7 were […] collected. In the culture supernatants the concentration of IL-1β, IL-8, IL-10, IL-12, TNF-α and IFN-γ was quantified by ELISA and the results were normalized with total protein concentration. The expression of IL-1β and TNF-α was evaluated using histochemistry.
(§2) FIG. 5. Effect of type I polymerized collagen on IL-8 expression in supernatants of cartilage and synovial tissue co-cultures from patients with rheumatoid arthritis (RA) or osteoarthritis (OA). The data represent the mean±SD of 9 co-cultures of cartilage and synovium from patients with RA and of 8 co-cultures of patients with OA. Each culture was performed in triplicate for each condition. The results were normalized with the total protein concentration of the supernatant, determined by the Folin-Löwry micromethod. AR: left panel. OA: panel on the right. Basal: tissue in basal conditions.

The test system of series [3] is TNF-α. Briefly: TNF-α in co-culture supernatants (ELISA). As to conditions: RA or OA co-cultures, day 7 of culture. The class given is cell-based, human. The procedure: as §1
as §2, with “4.” for “5.”, “TNF-α” for “IL-8”, “conditions. […] No detectable levels of IL-12 and IFN-γ were determined in the cultures.” for “conditions.”

The test system of series [4] is IL-10. Briefly: IL-10 in co-culture supernatants (ELISA). As to conditions: RA or OA co-cultures, day 7 vs. day 1 of culture. Type of series: cell-based, human. As for the experimental part:
as §1
FIG. 6. Effect of type I polymerized collagen on IL-10 expression in supernatants of cartilage and synovial tissue co-cultures from patients with rheumatoid arthritis (RA) or osteoarthritis (OA). The data represent the mean±SD of 9 co-cultures of cartilage and synovium from patients with RA and of 8 co-cultures of patients with OA. Each culture was performed in triplicate for each condition. The results were normalized with the total protein concentration of the supernatant, determined by the Folin-Lowry micromethod. AR: left panel. OA: panel on the right. Basal: tissue in basal conditions.

In series [5] the test system is NF-κB. Briefly: Ex vivo NF-κBp65 and IκBα expression in splenocytes, CIA models. Set-up: species or system mice. Particulars: early and long-standing arthritis. As for the experimental part: We infer that the mechanism of action of type I polymerized collagen could be given through the regulation of the transcription factor NF-κB and AP-1. In particular, NF-κB regulates the expression of pro-inflammatory enzymes, cytokines, chemokines, immunoreceptors, and cell adhesion molecules, as well as apoptosis. In the light of this knowledge, the expression of NF-κBp65 and its inhibitor IκBα in splenocytes were analyzed ex vivo (FIG. 12).
FIG. 12. Effect of type I polymerized collagen in the early (preventive) and long-standing (late or palliative) arthritis model on ex vivo NF-κB and IκB-α expression in splenocytes. (A) Spleen cells from early arthritis model mice at first sacrifice. (B) Splenocytes obtained immediately after the second sacrifice. (C) Spleen cells from long-standing arthritis model mice at first sacrifice. (D) Splenocytes obtained immediately after the second sacrifice. The intracellular levels of NF-κBp65 and IκBα cells were detected by flow cytometry. The results are representative of 6 mice analyzed in each group. The horizontal dotted line represents the average normal values obtained from mice (n=3) without CIA. Data represent mean±SEM. *p<0.05.

The subject of series [6] is Treg (CD4+/FOXP3+) cells. Briefly: FACS of spleen Foxp3+ regulatory T cells in CIA models. The class given is in vivo, mice. The procedure: Early Arthritis Model. Fifty mice with the same characteristics were immunized at the base of the tail with 100 μg of chicken type II collagen emulsified in complete Freund's adjuvant. The boost was applied on day 21 at the base of the tail with 100 μg of type II collagen emulsified with Freund's incomplete adjuvant. On the same boosting day, the treatments (a-d) were applied every week for six weeks. Three animals were euthanized in the sixth week and three in the thirteenth week. The spleen, lymph nodes, joint tissue, liver, lungs, kidneys and heart were obtained in order to assess the inflammatory infiltrate, the predominant cell populations and the expression of pro- and anti-inflammatory cytokines.
Established Arthritis Model. Arthritis was induced as in the previous model in 50 mice and the treatments were applied intramuscularly, after 2 weeks of the boost, every week for 6 weeks. Three animals were euthanized in the eighth week and three in the fifteenth week. The spleen, lymph nodes, joint tissue, liver, lungs, kidneys and heart were obtained in order to assess the inflammatory infiltrate, the predominant cell populations and the expression of pro- and anti-inflammatory cytokines.
Cytometric evaluation. Using FACS, the percentage of populations of Th1 ([…]), Th2 (CD4^+/IL-4^+), Treg (CD4^+/FOXP3^+) Th17 (CD4^+/IL-17^+) and dendritic (CD4−/CD11c^+) cells in spleen cells.
FIG. 10. Effect of type I polymerized collagen in the early (preventive) and long-standing (late or palliative) arthritis model on the percentage of spleen CD4+ T cell subpopulations. (A) Spleen cells obtained ex vivo in the early arthritis model during the first sacrifice. (B) Spleen cells obtained ex vivo in the early arthritis model during the second sacrifice. (C) Spleen cells obtained ex vivo in the long-standing arthritis model during the first sacrifice. […] The intracellular production of IL-17A, IL-4, IFN-γ and Foxp3 by CD4+ T cells was detected by flow cytometry. The results are representative of 6 mice analyzed in each group. […]

Where [7] appears, read: end of treatment and 7-day follow-up.

The values that follow come from patent US20230285516A1 (priority 2020, published 2023).

Regarding “collagen-polyvinylpyrrolidone [type I polymerized collagen]”, in series [1] (after 7 days), the “fever, changes in heart rate and odynophagia” value was “disappearance”; the “patients in whom cough, myalgia, and loss of taste persisted” value amounted to 40%; the “patients persisting with alterations in respiratory rate, headache, anosmia, and arthralgia” value was 20%; the “patients persisting with dyspnea” value is on record as 60%. Also, in series [1] (day 14, 7 days post-treatment), the “patients with mild alterations in heart rate, cough and loss of the sense of taste” value came out at 20%; the the other symptoms result is recorded as “disappeared”. In addition, in series [1] (setting [7]), the dyspnea and headache result is reported as “disappeared in all patients”; the “oxygen requirement to maintain saturation >90%” value is “none required oxygen”. In addition, in series [1] (human, in vivo), the “acute respiratory failure syndrome or hospitalization” value was “None”, the “complications related to SARS-CoV2 infection or due to the use of collagen-PVP” value is recorded as “No complications” and the death entry is listed as “No patient died”. In addition, in series [1] (mild to moderate disease), the adverse effects entry is listed as “No adverse effects were detected, except for pain at the application site” and the “persistence of pain at the application site” value lay in the range of 5 to 15 min. In addition, the clinical improvement entry in series [1] (patients with Covid-19, intramuscular, all cases) is on record as “In all cases there was a clinical improvement”. Also, the “concentration of IL-8 in the supernatants of the co-cultures” value in series [2] is “greatest decrease”. In addition, the “expression of TNF-α vs. the controls in the supernatants” value in series [3] is given as “decreased”. The “increase of IL-10 concentration in the supernatants” value in series [4] is on record as at least 10 times. The “percentage of NF-kB+ complexes with its inhibitor IκBα+ in splenocytes” value in series [5] is given as “increased to a statistically significant level”. The “positive regulation of Tregs cells” value in series [6] (CIA model, fold) is reported as 5.0-6.0 ×. In addition, in series [6] (early and long-standing arthritis, first and second sacrifice, vs placebo), the “Foxp3+ regulatory T cells” value is recorded as “increase”.
